We go through 11 molecules from ChEMBL document CHEMBL1201862, “PubChem BioAssay data set” (2004).

Test systems include COLO 205; NCI-H460; A549; HL-60; OVCAR-3; UO-31; SR; HCC 2998; MOLT-4; K562; CCRF-CEM; HOP-62; NCI-H522; CAKI-1; UACC-62; OVCAR-4; ACHN; EKVX; NCI-H226; SK-MEL-2.
Common to all, as to assay: inhibition of tumour cell growth, NCI panel, 48 h

Several values for one entry are separate records, joined by “and”; a condition that tells them apart may be missing. Equal entries are not always repeated.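 Five concentrations, 48 hours, 96-well plates. The concentration for 50% growth inhibition is given as GI50.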 Activity calls are given as the source filed them. Rule as the data show it: active = GI50 up to about 1.1 µM and inactive = higher.

Regarding `O=c1c(Nc2ccccc2)cn(CCOc2ccccc2)c(=O)n1CCOc1ccccc1`, the GI50 was 69.3 µM (inactive) in the assay on COLO 205; > 100 µM (inactive) in the assay with NCI-H460; 91.8 µM (inactive) in the assay on A549; > 100 µM (inactive) in the assay with HL-60; 35.9 µM (inactive) with OVCAR-3; 44.4 µM (inactive) in the assay with UO-31. For the same molecule, the GI50 was > 100 µM (inactive) with SR; 63.1 µM (inactive) in the assay with HCC 2998; > 100 µM (inactive) with MOLT-4; > 100 µM (inactive) in the assay with K562; > 100 µM (inactive) with CCRF-CEM; 17.2 µM (inactive) with HOP-62. For the same molecule, the GI50 was 29.1 µM (inactive) in the assay with NCI-H522; 81.7 µM (inactive) in the assay with CAKI-1; 41.2 µM (inactive) with UACC-62; 19.8 µM (inactive) with OVCAR-4; 37.7 µM (inactive) in the assay with ACHN; 33.1 µM (inactive) with EKVX.

For `Nc1cc(C(=O)NC2C3CC4CC(C3)CC2C4)nc(S)n1` (stereo not given), the GI50 with NCI-H460, in the assay with A549, in the assay on HL-60, in the assay on OVCAR-3, in the assay with UO-31 and in the assay on SR was > 100 µM (inactive) in each case. The GI50 in the assay with HCC 2998, in the assay on MOLT-4, in the assay on K562, in the assay on CCRF-CEM, with HOP-62 and in the assay on NCI-H522 was > 100 µM (inactive) throughout. In addition, the GI50 in the assay on CAKI-1, with NCI-H226, in the assay on OVCAR-4 and in the assay with EKVX was > 100 µM (inactive) each time.

Consider `NC1=NC(=O)/C(=C2\CCNC(=O)c3[nH]c(Br)cc32)N1` [HYMENIALDISINE], for which the GI50 with NCI-H460 was 65.6 µM (inactive); in the assay with A549, > 70.3 µM (inactive); in the assay with HL-60 it was 1.6 µM (inactive) and 1.66 µM (inactive); in the assay on UO-31, 3.02 µM (inactive) and 5.6 µM (inactive); with SR, 0.303 µM (active); with HCC 2998, 57.9 µM (inactive) and 55.3 µM (inactive). The GI50 was 4.28 µM (inactive) and 3.45 µM (inactive) in the assay with MOLT-4; 3.85 µM (inactive) and 4.1 µM (inactive) in the assay with K562; 2.43 µM (inactive) and 2.9 µM (inactive) with CCRF-CEM; 40.8 µM (inactive) and 31.9 µM (inactive) in the assay with HOP-62; 13.4 µM (inactive) and 9.62 µM (inactive) in the assay with UACC-62; 15.3 µM (inactive) and 17.5 µM (inactive) in the assay with OVCAR-4. Besides, the GI50 in the assay on ACHN was 45.3 µM (inactive); in the assay on EKVX, > 100 µM (inactive) and > 71.3 µM (inactive).

For `O=[N+]([O-])c1cccc([N+](=O)[O-])c1S(=O)(=O)c1ccccc1`, the GI50 is 6.18 µM (inactive) in the assay with COLO 205; 21.7 µM (inactive) in the assay on NCI-H460; 19.8 µM (inactive) in the assay with A549; 2.71 µM (inactive) in the assay with HL-60; 2.49 µM (inactive) in the assay on OVCAR-3; 1.86 µM (inactive) in the assay on UO-31. Moreover, the GI50 was 1.63 µM (inactive) in the assay on SR; 3.38 µM (inactive) with MOLT-4; < 0.01 µM (active) with CCRF-CEM; 19.9 µM (inactive) with HOP-62; 2.04 µM (inactive) with CAKI-1; 12.2 µM (inactive) with NCI-H226. Also, the GI50 is 2.17 µM (inactive) in the assay with ACHN and 21.2 µM (inactive) in the assay on EKVX.

Take `Cn1/c(=N\S(=O)(=O)c2ccccc2)[nH]c2ccccc21`: the GI50 with COLO 205, with NCI-H460, in the assay on A549, in the assay on HL-60, in the assay with UO-31 and in the assay on SR was > 100 µM (inactive) throughout. The GI50 in the assay with HCC 2998, with MOLT-4, in the assay with K562, with CCRF-CEM, in the assay with NCI-H522 and with CAKI-1 was > 100 µM (inactive) in each case. Further, the GI50 in the assay on NCI-H226, with UACC-62, in the assay with OVCAR-4, in the assay on ACHN and with EKVX was > 100 µM (inactive) each time.

Take `Cc1ncc(CO)c(CN)c1O`: the GI50 is > 100 µM (inactive) in the assay with COLO 205; > 100 µM (inactive) in the assay on NCI-H460; > 100 µM (inactive) with A549; 41.9 µM (inactive) with HL-60; > 100 µM (inactive) in the assay with OVCAR-3; > 100 µM (inactive) in the assay with UO-31. The GI50 with HCC 2998, with MOLT-4, with K562, with CCRF-CEM, with HOP-62 and in the assay on NCI-H522 was > 100 µM (inactive) in each case. For the same molecule, the GI50 in the assay with CAKI-1, in the assay with NCI-H226, in the assay on UACC-62, in the assay with SK-MEL-2, with OVCAR-4 and with ACHN was > 100 µM (inactive) in each case. Besides, the GI50 with EKVX was > 100 µM (inactive).

Take `COc1ccc([C@@]23Oc4cc(OC)cc(OC)c4[C@]2(O)[C@H](O)[C@H](C(N)=O)[C@H]3c2ccccc2)cc1` [DIDESMETHYLROCAGLAMIDE]: the GI50 in the assay with COLO 205 is < 0.01 µM (active); in the assay on NCI-H460, < 0.01 µM (active); in the assay with A549, < 0.01 µM (active); in the assay with HL-60, < 0.0192 µM (active); in the assay with OVCAR-3, < 0.01 µM (active); with UO-31, < 0.0161 µM (active). Besides, the GI50 in the assay on HCC 2998, in the assay with MOLT-4, with K562, with CCRF-CEM, with HOP-62 and in the assay with NCI-H522 was < 0.01 µM (active) each time. Also, the GI50 in the assay with CAKI-1 was < 0.0164 µM (active); in the assay with NCI-H226 it was < 0.01 µM (active); in the assay on UACC-62 it was < 0.01 µM (active); with SK-MEL-2 it was < 0.0106 µM (active); in the assay on OVCAR-4, < 0.0126 µM (active); in the assay on ACHN, < 0.01 µM (active). Further, in the assay on EKVX, the GI50 is < 0.0106 µM (active).

Turning to `O=C(O)c1ccc(C(O)(c2ccccc2)c2ccccc2)cc1`, the GI50 in the assay on COLO 205, in the assay with A549, with HL-60, with OVCAR-3, in the assay on UO-31 and in the assay on SR was > 100 µM (inactive) throughout. In addition, the GI50 in the assay on MOLT-4, in the assay with K562, in the assay on CCRF-CEM, in the assay on HOP-62, in the assay with NCI-H522 and in the assay on CAKI-1 was > 100 µM (inactive) each time. In addition, the GI50 in the assay on UACC-62, in the assay on OVCAR-4, in the assay with ACHN and in the assay with EKVX was > 100 µM (inactive) in each case.

Turning to `C[Si](C)(C)C#C[I+]c1ccccc1`, the GI50 is 17.7 µM (inactive) in the assay with COLO 205; > 100 µM (inactive) in the assay with NCI-H460; > 100 µM (inactive) in the assay with A549; 22.5 µM (inactive) in the assay with HL-60; 32.7 µM (inactive) in the assay with OVCAR-3; 67 µM (inactive) in the assay on UO-31. Further, the GI50 was > 100 µM (inactive) in the assay on HCC 2998; 29.4 µM (inactive) in the assay with MOLT-4; 41.1 µM (inactive) with K562; 15.1 µM (inactive) in the assay on CCRF-CEM; > 100 µM (inactive) in the assay on HOP-62; 9.4 µM (inactive) with NCI-H522. For the same molecule, the GI50 in the assay with CAKI-1 was 42.8 µM (inactive); in the assay with NCI-H226 it was > 100 µM (inactive); with UACC-62 it was 33.2 µM (inactive); with SK-MEL-2, > 100 µM (inactive); with OVCAR-4 it was 36.2 µM (inactive); with ACHN it was 41.8 µM (inactive). Besides, the GI50 in the assay with EKVX is 52.1 µM (inactive).

Take `COc1cc(/C=C2\C(=O)N(C(=O)c3ccc(NC(C)=O)cc3)N=C2C)ccc1O`: the GI50 with COLO 205, in the assay on NCI-H460, with A549, with HL-60, with OVCAR-3 and with UO-31 was > 100 µM (inactive) each time. Further, the GI50 in the assay with SR, in the assay with HCC 2998, in the assay with MOLT-4, in the assay with K562, in the assay with CCRF-CEM and with HOP-62 was > 100 µM (inactive) in each case. For the same molecule, the GI50 in the assay with NCI-H522, in the assay with CAKI-1, in the assay with NCI-H226, with OVCAR-4, in the assay with ACHN and in the assay with EKVX was > 100 µM (inactive) in each case.

Consider `CN(C)c1nc2oc(-c3ccccc3)c(-c3ccccc3)c2c2nncn12`, for which the GI50 in the assay with COLO 205 was > 100 µM (inactive); with A549, > 100 µM (inactive); with UO-31, > 100 µM (inactive); in the assay on SR, > 100 µM (inactive); in the assay on HCC 2998, > 100 µM (inactive); with MOLT-4, > 10 µM (inactive). Also, the GI50 in the assay on K562, in the assay with CCRF-CEM, in the assay on NCI-H522, with CAKI-1, in the assay on NCI-H226 and in the assay with UACC-62 was > 100 µM (inactive) throughout. Moreover, the GI50 with OVCAR-4, with ACHN and in the assay with EKVX was > 100 µM (inactive) in each case.
